Data as given in US6630488B1, “Quinolizinones as integrin inhibitors” (Biochem Pharma, Inc., priority 1998, dated 2003).
Where a name gives a salt, the structure may show the parent alone. Read-outs that look alike come from different tables or passages of the source.

Columns and labels:
[1] = Cell proliferation and cytotoxicity MTT assay, T24; type: cell-based; settings: human, T24 tumor cells
Description: (§1) The wells of microtiter plates were seeded with 2000 cells/well (T24), 2500 cells/well (HT29), 5000 cells/well (HMVEC)or 2500 cells/well (IAFp2) in 100 μL, followed by an overnight culture for cell adhesion. […] Following culture for 72 hours, 3-(4,5-dimethyl-2-thiazolyl)-2,5-diphenyltetrazolium bromide (MTT; Sigma) at 2 mg/ml was added to each well (50 μL/well) and further incubated for 4 hours at 37° C. The medium was flicked out and 200 μL of a 1:1 solution of ethanol:acetone followed by 25 μL of glycine buffer (0.1 M glycine, 0.1M NaCl, pH 10.5) is added and the color measured by the absorbance at 570 nm.

[2] = Cell proliferation and cytotoxicity MTT assay, HMVEC; type: cell-based; settings: human, HMVEC endothelial cells
Description: as §1

placental αvβ3 = biological target: T1, placental αvβ3 (Homo sapiens, UniProt P05106+P06756); experiment: Fibrinogen binding to immobilized αvβ3
T1 construct: purified active GP IIb-IIIa (Calbiochem) or olacental αvβ3 at 0.5 μg/ml; from tissue; host or cells: placenta
T1 sequence (P06756 31-889 limits assumed): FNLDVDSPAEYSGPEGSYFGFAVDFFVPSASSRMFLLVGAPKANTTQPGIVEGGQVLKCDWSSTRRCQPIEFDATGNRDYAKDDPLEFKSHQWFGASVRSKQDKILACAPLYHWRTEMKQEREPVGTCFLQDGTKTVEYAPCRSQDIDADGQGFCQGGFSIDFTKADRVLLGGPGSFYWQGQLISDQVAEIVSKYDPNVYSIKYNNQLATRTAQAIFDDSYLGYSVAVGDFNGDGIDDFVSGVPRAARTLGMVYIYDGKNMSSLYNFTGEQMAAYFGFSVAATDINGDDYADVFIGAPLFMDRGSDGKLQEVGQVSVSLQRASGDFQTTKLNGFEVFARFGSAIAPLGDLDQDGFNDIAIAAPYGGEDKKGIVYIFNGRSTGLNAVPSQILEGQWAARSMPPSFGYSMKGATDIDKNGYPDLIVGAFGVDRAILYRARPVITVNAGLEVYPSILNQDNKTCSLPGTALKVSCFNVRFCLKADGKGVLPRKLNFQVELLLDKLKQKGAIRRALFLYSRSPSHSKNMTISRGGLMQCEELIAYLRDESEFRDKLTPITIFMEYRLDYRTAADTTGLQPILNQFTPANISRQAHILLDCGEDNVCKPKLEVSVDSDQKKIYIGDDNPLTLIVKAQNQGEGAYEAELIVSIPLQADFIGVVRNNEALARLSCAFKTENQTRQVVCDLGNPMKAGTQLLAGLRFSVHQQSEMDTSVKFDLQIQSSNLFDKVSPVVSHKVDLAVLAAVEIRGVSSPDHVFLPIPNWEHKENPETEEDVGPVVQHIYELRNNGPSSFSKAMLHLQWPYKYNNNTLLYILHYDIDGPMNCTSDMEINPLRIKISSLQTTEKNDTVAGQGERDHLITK
T1 sequence (P06756 891-1048 partner limits assumed): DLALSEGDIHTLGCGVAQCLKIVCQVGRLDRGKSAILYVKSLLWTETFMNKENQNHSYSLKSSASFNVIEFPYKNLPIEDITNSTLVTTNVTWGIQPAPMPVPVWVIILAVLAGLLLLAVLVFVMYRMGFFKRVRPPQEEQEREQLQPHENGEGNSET
T1 sequence (P05106 27-788): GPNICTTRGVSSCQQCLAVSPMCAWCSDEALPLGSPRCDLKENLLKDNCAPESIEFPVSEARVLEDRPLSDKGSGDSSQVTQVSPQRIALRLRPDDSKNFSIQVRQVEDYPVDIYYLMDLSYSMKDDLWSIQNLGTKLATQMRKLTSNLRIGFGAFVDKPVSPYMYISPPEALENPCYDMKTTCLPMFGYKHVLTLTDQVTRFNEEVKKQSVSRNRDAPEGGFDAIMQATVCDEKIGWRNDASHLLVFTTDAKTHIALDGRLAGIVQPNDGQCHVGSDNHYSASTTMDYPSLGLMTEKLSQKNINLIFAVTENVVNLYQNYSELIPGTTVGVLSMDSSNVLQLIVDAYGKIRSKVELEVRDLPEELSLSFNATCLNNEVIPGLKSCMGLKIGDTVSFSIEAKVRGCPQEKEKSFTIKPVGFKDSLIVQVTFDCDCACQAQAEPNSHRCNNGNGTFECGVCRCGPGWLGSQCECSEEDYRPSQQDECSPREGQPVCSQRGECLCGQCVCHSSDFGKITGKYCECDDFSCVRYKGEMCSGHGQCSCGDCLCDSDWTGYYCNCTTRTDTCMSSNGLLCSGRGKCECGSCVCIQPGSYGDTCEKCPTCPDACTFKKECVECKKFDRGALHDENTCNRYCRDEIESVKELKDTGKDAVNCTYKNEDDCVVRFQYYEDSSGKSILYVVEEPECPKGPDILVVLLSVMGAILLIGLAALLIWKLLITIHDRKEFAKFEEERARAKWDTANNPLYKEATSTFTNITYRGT
Description: (§2) Nonbound fibrinogen was removed by five washes with binding buffer. Avidin conjugated to alkaline phosphatase (Sigma), diluted in binding buffer, was added and incubated for two hours at 37° C. The plates were washed five times with binding buffer, and after addition of the substrate PNPP (Pierce), the enzyme activity was measured by the absorbance at 405 nm.

αvβ5 = biological target: T2, αvβ5 (Homo sapiens, UniProt P06756+P18084); experiment: Cell attachment assay, HT29; type: cell-based
T2 construct: Cells [HT29 (ATOC), HMVEC (Cell Systems), K562 or K562 transfected with αvβ3; endogenous in cells; host or cells: HT29
Description: (§3) The wells of 96-well plates (Immunolon) were coated, by incubation overnight at 4° C., with 5 μg/ml of vitronectin or osteopontin, 10 μg/ml of fibronectin or 10 mg/ml BSA in PBS. The protein solution was flicked out and the wells were blocked with 10 mg/ml BSA (0.1 ml) for 1-2 hours at 37° C.
(§4) Cells were lifted with trypsin-EDTA and washed two times with Hank's balanced salt solution (Sigma) supplemented with 1 mM MgCl2. Cells (75,000 cells/well) were added to coated plates in triplicate and allowed to attach at 37° C. for 1 hour in the presence or absence of specific antibodies at 5 μ/ml or increasing concentrations of compounds of interest (0.001-10 μM). Nonadherent cells were removed by gentle washing twice with PBS. The adherent cells were solubilized with 1% triton X-100 and detected using a fluorescence plate reader (Perkin Elmer).
(§5) The number of attached cells was calculated based upon starched curves for each cell line used in the experiment. […] The results presented are the average of triplicate samples and representative of several separate assays.

[3] = Cell proliferation and cytotoxicity MTT assay, HT29; type: cell-based; settings: human, HT29 tumor cells
Description: as §1

[4] = Cell proliferation and cytotoxicity MTT assay, IAFp2; type: cell-based; settings: IAFp2 skin fibroblasts, read-out: Cell proliferation and cytotoxicity IC50, IAFp2 Skin Fibroblast
Description: as §1

[5] = tested on: Chick Chorioallantoic Membrane (CAM) capillary formation; experiment: Chick chorioallantoic membrane (CAM) mesh assay; type: in vivo, chicken; settings: Day 12, 24 hr treatment
Description: Fertilized white leghorn chicken eggs (SPAFAS Inc., Norwich, Conn.) were received at day 0 and incubated for 3 days at 37 C with constant humidity. On day 3, eggs were rinsed with 70% ethanol and opened into 100 mm^2 tissue culture coated Petri dishes under aseptic conditions. The embryos were then returned to a humidified 38 C incubator for 7-9 additional days.
Vitrogen (Collagen Biomaterials, Palo Alto, Calif.) at a final concentration of 0.73 mg/ml and Matrigel (Becton Dickinson, Bedford, Mass.) at a final concentration of 10 mg/ml was directly pipetted onto Nylon meshes with 250 μm^2 openings which were cut into 4 mm×4 mm squares and autoclaved. Polymerization of meshes were under aseptic conditions, on bacteriological Petri dishes. The polymerization conditions for each substrate were identical; after mixing with or without […] of VPF/VEGF165 (Peprotech, Rocky Hill, N.J.) and/or compounds of interest, 40 μl were pipetted onto each mesh in a bacteriological Petri dish.
The Petri dish was placed in a humidified 37 C incubator with 5% CO2 for 30 minutes to allow polymerization followed by an incubation at 4 C for 2 hours.
In a tissue culture enclosure, meshes were placed onto the periphery of the CAM of a day 12-14 embryo, excluding areas containing major vessels. The embryos were then returned to the humidified 38 C incubator with 3% CO2 for 24 to 48 additional hours.
Embryos were removed from the incubator and meshes were viewed under a dissecting microscope for gross evaluation. Injection of 400 μl FITC dextran, MW 2,000,000 (Sigma, St. Louis, Mo.) through glass microcapillary tubes by infusion into the umbilical vein was performed at a rate of 200 μl per minute. The FITC dextran was allowed to circulate for 5 minutes and 3.7% formaldehyde in PBS was applied directly on each mesh. The embryos were then incubated at 4 C for 5 minutes and the meshes were dissected off the CAM and fixed in 3.7% formaldehyde for 10 minutes to overnight.
After fixation, meshes were mounted on slides with 90% glycerol in PBS and visualized on an inverted fluorescence microscope. A Nikon Diaphot with a Sony DXC-151A camera attached to the side port was used for capture of images and analysis was with the NIH Image 1.61 software program. For each mesh, 5 random staggered images (approximately 600 μm each) were captured. The areas of high intensity were highlighted and measured. Results are expressed as ability to suppress capillary formation after subtraction from negative control. Values were calculated as i inhibition, considering 100% the capillary density achieved by VPF in the presence of vitrogen alone minus the background levels in the absence of VPF. Negative values indicate angiogenic stimulation above the VPF positive control.

αvβ3 = biological target: T3, αvβ3 (Homo sapiens, UniProt P05106+P06756); experiment: Cell attachment assay, K562 transfected with αvβ3; type: cell-based
T3 construct: expressed in transfected cells; host or cells: K562
T3 sequence (P06756 31-889 limits assumed): as the sequence (P06756 31-889 limits assumed) above
T3 sequence (P06756 891-1048 partner limits assumed): as the sequence (P06756 891-1048 partner limits assumed) above
T3 sequence (P05106 27-788): as the sequence (P05106 27-788) above
Description: as §3, §4, §5

GP IIb-IIIa (αIIbβ3) = biological target: T4, GP IIb-IIIa (αIIbβ3) (Homo sapiens, UniProt P05106+P08514); experiment: Fibrinogen binding to immobilized GP IIb-IIIa (αIIbβ3)
T4 construct: purchased Calbiochem
T4 sequence (P08514 32-887 limits assumed): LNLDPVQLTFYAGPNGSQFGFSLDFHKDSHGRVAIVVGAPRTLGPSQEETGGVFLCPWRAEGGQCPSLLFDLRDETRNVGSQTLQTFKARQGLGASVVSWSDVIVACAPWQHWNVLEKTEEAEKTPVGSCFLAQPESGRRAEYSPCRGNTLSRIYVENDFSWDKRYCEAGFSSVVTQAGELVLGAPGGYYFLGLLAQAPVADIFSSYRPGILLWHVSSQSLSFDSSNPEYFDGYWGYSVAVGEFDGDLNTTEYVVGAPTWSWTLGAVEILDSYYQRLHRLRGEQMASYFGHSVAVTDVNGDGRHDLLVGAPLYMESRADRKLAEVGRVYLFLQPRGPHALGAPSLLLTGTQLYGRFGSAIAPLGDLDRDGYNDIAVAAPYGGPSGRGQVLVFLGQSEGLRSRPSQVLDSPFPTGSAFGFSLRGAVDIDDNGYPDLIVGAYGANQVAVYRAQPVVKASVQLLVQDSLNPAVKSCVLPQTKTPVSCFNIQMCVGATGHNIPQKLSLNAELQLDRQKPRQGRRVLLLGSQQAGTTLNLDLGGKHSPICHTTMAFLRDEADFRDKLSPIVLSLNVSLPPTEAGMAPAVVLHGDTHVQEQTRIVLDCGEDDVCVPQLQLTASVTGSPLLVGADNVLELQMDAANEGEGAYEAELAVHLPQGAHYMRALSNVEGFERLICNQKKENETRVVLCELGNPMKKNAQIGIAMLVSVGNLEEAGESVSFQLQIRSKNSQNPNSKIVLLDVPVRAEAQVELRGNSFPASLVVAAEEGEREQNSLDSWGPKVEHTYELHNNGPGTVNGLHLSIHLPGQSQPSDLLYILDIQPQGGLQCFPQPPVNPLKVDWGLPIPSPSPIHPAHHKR
T4 sequence (P08514 891-1039 partner limits assumed): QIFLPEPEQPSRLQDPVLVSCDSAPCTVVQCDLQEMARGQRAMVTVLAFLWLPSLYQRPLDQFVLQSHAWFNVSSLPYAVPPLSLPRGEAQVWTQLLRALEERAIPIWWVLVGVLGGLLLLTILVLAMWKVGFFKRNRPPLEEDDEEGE
T4 sequence (P05106 27-788): as the sequence (P05106 27-788) above
Description: as §2

α5β1 = biological target: T5, α5β1 (Homo sapiens, UniProt P05556+P08648); experiment: Cell attachment assay, K562; type: cell-based; settings: ligand fibronectin, read-out: Cell attachment IC50, α5β1, Fibro-nectin
T5 construct: Cell Line; K562 transfected αvβ3; HT29; K562; endogenous in cells; host or cells: K562
T5 sequence (P08648 42-894 limits assumed): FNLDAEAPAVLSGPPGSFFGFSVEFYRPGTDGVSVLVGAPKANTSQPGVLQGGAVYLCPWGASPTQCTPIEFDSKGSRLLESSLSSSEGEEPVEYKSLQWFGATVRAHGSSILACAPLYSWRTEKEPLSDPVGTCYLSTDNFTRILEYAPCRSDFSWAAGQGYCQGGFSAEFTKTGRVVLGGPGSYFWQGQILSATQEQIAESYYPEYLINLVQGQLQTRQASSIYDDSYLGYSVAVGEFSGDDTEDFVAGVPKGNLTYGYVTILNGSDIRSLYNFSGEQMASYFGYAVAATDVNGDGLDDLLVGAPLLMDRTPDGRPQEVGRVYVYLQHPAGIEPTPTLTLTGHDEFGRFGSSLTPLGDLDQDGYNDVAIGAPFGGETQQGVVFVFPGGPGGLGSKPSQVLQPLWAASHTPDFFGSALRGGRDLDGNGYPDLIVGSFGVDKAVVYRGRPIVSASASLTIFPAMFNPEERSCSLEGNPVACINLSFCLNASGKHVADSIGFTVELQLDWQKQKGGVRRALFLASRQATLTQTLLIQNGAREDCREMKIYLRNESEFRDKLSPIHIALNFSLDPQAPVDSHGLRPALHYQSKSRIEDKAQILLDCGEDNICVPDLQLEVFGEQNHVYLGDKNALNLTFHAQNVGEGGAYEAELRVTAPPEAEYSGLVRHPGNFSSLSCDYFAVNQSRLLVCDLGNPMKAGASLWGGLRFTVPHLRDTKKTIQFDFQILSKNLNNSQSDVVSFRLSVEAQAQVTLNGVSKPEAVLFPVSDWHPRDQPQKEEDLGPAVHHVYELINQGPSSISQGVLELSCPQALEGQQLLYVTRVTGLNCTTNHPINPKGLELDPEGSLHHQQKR
T5 sequence (P08648 895-1049 partner limits assumed): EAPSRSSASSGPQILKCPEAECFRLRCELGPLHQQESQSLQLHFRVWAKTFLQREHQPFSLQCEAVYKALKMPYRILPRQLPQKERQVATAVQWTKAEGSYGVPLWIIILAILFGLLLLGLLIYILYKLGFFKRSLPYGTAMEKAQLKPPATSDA
T5 sequence (P05556 21-798): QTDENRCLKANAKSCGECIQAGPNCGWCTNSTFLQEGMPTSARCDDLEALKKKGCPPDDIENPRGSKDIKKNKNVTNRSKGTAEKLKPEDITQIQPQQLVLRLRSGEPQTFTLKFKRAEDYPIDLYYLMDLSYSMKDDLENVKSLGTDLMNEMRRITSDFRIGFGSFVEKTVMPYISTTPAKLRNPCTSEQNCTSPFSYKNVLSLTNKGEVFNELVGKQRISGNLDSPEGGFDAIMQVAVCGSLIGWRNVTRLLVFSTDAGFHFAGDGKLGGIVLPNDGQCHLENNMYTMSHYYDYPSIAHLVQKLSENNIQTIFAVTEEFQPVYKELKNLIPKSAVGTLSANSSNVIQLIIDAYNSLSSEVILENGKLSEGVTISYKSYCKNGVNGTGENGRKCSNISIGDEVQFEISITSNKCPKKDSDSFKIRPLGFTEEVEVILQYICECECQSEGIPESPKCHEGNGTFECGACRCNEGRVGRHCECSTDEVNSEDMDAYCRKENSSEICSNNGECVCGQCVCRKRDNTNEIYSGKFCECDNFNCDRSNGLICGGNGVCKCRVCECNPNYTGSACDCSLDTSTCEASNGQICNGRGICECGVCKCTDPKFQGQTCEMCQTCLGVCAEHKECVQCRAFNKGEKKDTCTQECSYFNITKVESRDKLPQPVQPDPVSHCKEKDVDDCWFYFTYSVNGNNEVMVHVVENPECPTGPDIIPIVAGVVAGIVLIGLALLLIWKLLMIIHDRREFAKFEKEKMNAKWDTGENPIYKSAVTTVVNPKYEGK
Description: The wells of 96-well plates (Immunolon) were coated, by incubation overnight at 4° C., with 5 μg/ml of vitronectin or osteopontin, 10 μg/ml of fibronectin or 10 mg/ml BSA in PBS. The protein solution was flicked out and the wells were blocked with 10 mg/ml BSA (0.1 ml) for 1-2 hours at 37° C. Cells [HT29 (ATOC), HMVEC (Cell Systems), K562 or K562 transfected with αvβ3 (Blystone et al., 1994)] were loaded with a fluorescent marker, 5-chloromethylfluorescein diacetate (Molecular Probes, Eugene, Or) for 1 hour at 37° C., then incubated in fresh medium without the fluorescent marker for 1 hour.
as §4
The number of attached cells was calculated based upon starched curves for each cell line used in the experiment. Non-specific cell attachment (attachment to wells coated with BSA) was always less than 5%. The results presented are the average of triplicate samples and representative of several separate assays.

[6] = biotinylated-fibrinogen 10 nM, immobilized placental αvβ3, read-out: IC50 values for the fibrinogen binding assay αvβ3
[7] = HT29, ligand vitronectin, read-out: Cell attachment IC50, αvβ5, Vitro-Nectin
[8] = ligand osteopontin, read-out: Cell attachment IC50, αvβ3, Osteo-Pontin
[9] = biotinylated-fibrinogen 10 nM, immobilized GP IIb-IIIa, read-out: IC50 values for the fibrinogen binding assay αIIbβ3
[10] = Cell attachment IC50, αvβ3, Osteo-Pontin, ligand osteopontin
[11] = Cell attachment IC50, αvβ3, Vitro-nectin, ligand vitronectin

Structure (SMILES) | IC50 at 72 h [1] | IC50 at 72 h [2] | IC50 (placental αvβ3; [6]) | IC50 (αvβ5; [7]) | IC50 at 72 h [3] | IC50 at 72 h [4] | CAM inhibition of capillary formation ([5]; 3 μg/mesh, +VPF) | CAM inhibition of capillary formation ([5]; 3 μg/mesh, −VPF) | CAM inhibition of capillary formation ([5]; 17 μg/mesh, +VPF) | CAM inhibition of capillary formation ([5]; 17 μg/mesh, −VPF) | CAM inhibition of capillary formation ([5]; 33 μg/mesh, +VPF) | CAM inhibition of capillary formation ([5]; 33 μg/mesh, −VPF) | IC50 (αvβ3; [8]) | IC50 (GP IIb-IIIa (αIIbβ3); [9]) | IC50 (α5β1) | IC50 (placental αvβ3) | IC50 (αvβ5) | IC50 (αvβ3; [10]) | IC50 (αvβ3; [11]) | IC50 (GP IIb-IIIa (αIIbβ3))
N=C(N)NCC1CCc2cc(C(=O)NCC(NS(=O)(=O)c3ccccc3)C(=O)O)cc(=O)n2C1 [Compound XXIX, (2S, 7R) and (2S, 7S)-2-Benzenesulfonylamino-3-[(7-guanidinomethyl-4-oxo-6,7,8,9-tetrahydro-4H-quinolizine-2-carbonyl)-amino]-propionic Acid] | > 100 µM | 1 ± 0.2 µM | 0.0042 µM | 3.2 ± 1.6 µM | 13 µM | 23 µM | 10% | 4% | 12% | 8% | 14% | 13% | 0.16 ± 0.01 µM | 0.094 µM | > 10 µM | – | – | – | – | –
N=C(N)NCCOc1ccc2cc(C(=O)NC[C@H](NS(=O)(=O)c3ccccc3)C(=O)O)cc(=O)n2c1 [Compound XX, (S)-2-Benzenesulfonylamino-3-{[7-(2-guanidino-ethoxy)-4-oxo-4H-quinolizine-2-carbonyl]-amino}-propionic Acid Hydrochloride] | > 100 µM | 35 ± 22 µM | – | – | 100 µM | 21 µM | – | – | – | – | – | – | – | – | > 10 µM | 0.1 µM | > 10 µM | 2.3 ± 2 µM | > 10 µM | 0.0079 µM
N=C(N)NCCCOc1ccc2cc(C(=O)NC[C@H](NS(=O)(=O)c3ccccc3)C(=O)O)cc(=O)n2c1 [Compound XV, (S)-2-Benzenesulfonylamino-3-{[7-(3-guanidino-propoxy)-4-oxo-4H-quinolizine-2-carbonyl]-amino}-propionic Acid Hydrochloride] | > 100 µM | 16 ± 4 µM | – | – | > 100 µM | 17 µM | 7% | 2% | 7% | 9% | 10% | 8% | – | – | > 10 µM | 0.015 µM | – | 0.5 ± 0.2 µM | 2.5 ± 1.5 µM | 0.0053 µM
Cl.N=C(N)NCc1ccc2cc(C(=O)NC[C@H](NS(=O)(=O)c3ccccc3)C(=O)O)cc(=O)n2c1 [Compound XXVII, (S)-2-Benzenesulfonylamino-3-[(7-guanidinomethyl-4-oxo-4H-quinolizine-2-carbonyl)-amino]-propionic Acid Hydrochloride] | > 100 µM | 1.2 ± 0.4 µM | 0.015 µM | 5.8 ± 3.6 µM | > 100 µM | > 100 µM | 9% | 5% | 12% | 11% | 19% | 16% | 0.43 ± 0.18 µM | 0.25 µM | > 10 µM | – | – | – | – | –
